How the values were obtained:
Type in all cases: in vivo
[1] = tested on: ducksalad (Heteranthera limosa); assay: Test B flooded paddy: ducksalad; conditions: Flood; 250 g ai/ha; applied to paddy water at 2-leaf stage; visually evaluated after 13 to 15 days
Outline: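 Greenhouse assay lasting 13 to 15 days. Treatment was into water flooding pots 3 cm deep, at the 2-leaf stage, with that level sustained afterwards. Scores compare treated with control plants visually, 100 denoting complete control and 0 no effect; a dash marks no test result.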

[2] = tested on: windgrass (Apera spica-venti); assay: Test C postemergence: windgrass
Outline: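 Response values are visual ratings, 0 (no effect) to 100 (complete control), made by comparison with untreated controls 13 to 15 days after postemergence treatment of greenhouse-grown potted plants that were 2 to 18 cm high at spraying.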

[3] = tested on: field violet (Viola arvensis); assay: Test D pre-/postemergence: field violet; conditions: Postemergence; for Plant response rating, Field Violet: scale 0 to 100
Outline: (§1)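 Applied as a non-phytotoxic solvent formulation with surfactant, compounds were tested preemergence in silt loam and postemergence on seedlings 2 to 18 cm high in peat-vermiculite medium. Evaluation was visual, 0 meaning no effect and 100 complete control, at 14 to 21 days.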

kochia (Kochia scoparia) = assay: Test D pre-/postemergence: kochia
Outline: as §1

[4] = tested on: pigweed (Amaranthus retroflexus); assay: Test D pre-/postemergence: pigweed
Outline: as §1

[5] = tested on: speedwell (bird's-eye speedwell, Veronica persica); assay: Test D pre-/postemergence: speedwell
Outline: as §1

[6] = tested on: barley, spring (spring barley, Hordeum vulgare); assay: Test D pre-/postemergence: barley, spring
Outline: as §1

[7] = tested on: wheat, spring (spring wheat, Triticum aestivum); assay: Test D pre-/postemergence: wheat, spring
Outline: as §1

[8] = 31 g ai/ha, scale 0 to 100 (0 no effect, 100 complete control)
[9] = 62 g ai/ha, scale 0 to 100 (0 no effect, 100 complete control)
[10] = 125 g ai/ha, scale 0 to 100, 0 no effect, 100 complete control
[11] = 250 g ai/ha, scale 0 to 100 (0 no effect, 100 complete control)
[12] = Postemergence, 31 g ai/ha, scale 0 to 100 (0 no effect, 100 complete control)
[13] = Postemergence, 62 g ai/ha, scale 0 to 100 (0 no effect, 100 complete control)
[14] = Postemergence, 125 g ai/ha, scale 0 to 100, 0 no effect, 100 complete control
[15] = Postemergence, 250 g ai/ha, scale 0 to 100 (0 no effect, 100 complete control)
[16] = Postemergence, 16 g ai/ha, scale 0 to 100
[17] = Postemergence, 8 g ai/ha, scale 0 to 100
[18] = Preemergence, 16 g ai/ha, scale 0 to 100 (0 no effect, 100 complete control)
[19] = Preemergence, 31 g ai/ha, scale 0 to 100 (0 no effect, 100 complete control)
[20] = Preemergence, 62 g ai/ha, scale 0 to 100
[21] = Preemergence, 125 g ai/ha, scale 0 to 100
[22] = Preemergence, 250 g ai/ha, scale 0 to 100

## Cc1nn(-c2ccnc(C(F)(F)F)c2)nc1Cc1ccnc(C(F)(F)F)c1 [Compound 137]
[1]
  Plant response rating, Ducksalad (0 to 100 scale, 0 is no effect, 100 is complete control): 50
[2]; [8]
  Plant response rating, Windgrass: 40
[2]; [9]
  Plant response rating, Windgrass: 50
[2]; [10]
  Plant response rating, Windgrass: 70
[2]; 250 g ai/ha, scale 0 to 100
  Plant response rating, Windgrass: 90
[3]; [8]
  Plant response rating: Field Violet: 70
[3]; [9]
  Plant response rating: Field Violet: 85
[3]; [10]
  Plant response rating: Field Violet: 90
[3]; [11]
  Plant response rating: Field Violet: 95
[3]; 16 g ai/ha
  Plant response rating, Field Violet: 50
Kochia (Kochia scoparia); [12]
  Plant response rating: Kochia: 85
Kochia (Kochia scoparia); [13]
  Plant response rating: Kochia: 90
Kochia (Kochia scoparia); [14]
  Plant response rating: Kochia: 95
Kochia (Kochia scoparia); [15]
  Plant response rating: Kochia: 100
Kochia (Kochia scoparia); [16]
  Plant response rating, Kochia: 75
[4]; [12]
  Plant response rating: Pigweed: 90
[4]; [13]
  Plant response rating: Pigweed: 95
[4]; [14]
  Plant response rating: Pigweed: 100
[4]; [15]
  Plant response rating: Pigweed: 100
[4]; [16]
  Plant response rating, Pigweed: 90
[5]; [12]
  Plant response rating: Speedwell: 70
[5]; [13]
  Plant response rating: Speedwell: 85
[5]; [14]
  Plant response rating: Speedwell: 95
[5]; [15]
  Plant response rating: Speedwell: 100
[5]; [16]
  Plant response rating, Speedwell: 70
[6]; [12]
  Plant response rating: Barley, Spring: 15
[6]; [13]
  Plant response rating: Barley, Spring: 25
[6]; [14]
  Plant response rating: Barley, Spring: 30
[6]; [15]
  Plant response rating: Barley, Spring: 40
[6]; [16]
  Plant response rating, Barley, Spring: 10
[7]; [12]
  Plant response rating: Wheat, Spring: 5
[7]; [13]
  Plant response rating: Wheat, Spring: 10
[7]; [14]
  Plant response rating: Wheat, Spring: 20
[7]; [15]
  Plant response rating: Wheat, Spring: 25
[7]; [16]
  Plant response rating, Wheat, Spring: 0

## Cc1nn(-c2ccc(F)c(F)c2)nc1Oc1ccnc(C(F)(F)F)c1 [Compound 145]
[1]
  Plant response rating, Ducksalad (0 to 100 scale, 0 is no effect, 100 is complete control): 60
[2]; [8]
  Plant response rating, Windgrass: 50
[2]; [9]
  Plant response rating, Windgrass: 70
[2]; [10]
  Plant response rating, Windgrass: 90
[2]; 250 g ai/ha, scale 0 to 100
  Plant response rating, Windgrass: 90
[3]; [8]
  Plant response rating: Field Violet: 75
[3]; [9]
  Plant response rating: Field Violet: 95
[3]; [10]
  Plant response rating: Field Violet: 95
[3]; 8 g ai/ha
  Plant response rating, Field Violet: 70
[3]; 16 g ai/ha
  Plant response rating, Field Violet: 80
Kochia (Kochia scoparia); [12]
  Plant response rating: Kochia: 98
Kochia (Kochia scoparia); [13]
  Plant response rating: Kochia: 100
Kochia (Kochia scoparia); [14]
  Plant response rating: Kochia: 100
Kochia (Kochia scoparia); [17]
  Plant response rating, Kochia: 80
Kochia (Kochia scoparia); [16]
  Plant response rating, Kochia: 90
[4]; [12]
  Plant response rating: Pigweed: 95
[4]; [13]
  Plant response rating: Pigweed: 100
[4]; [14]
  Plant response rating: Pigweed: 100
[4]; [17]
  Plant response rating, Pigweed: 20
[4]; [16]
  Plant response rating, Pigweed: 70
[5]; [12]
  Plant response rating: Speedwell: 70
[5]; [13]
  Plant response rating: Speedwell: 85
[5]; [14]
  Plant response rating: Speedwell: 100
[5]; [17]
  Plant response rating, Speedwell: 50
[5]; [16]
  Plant response rating, Speedwell: 55
[6]; [12]
  Plant response rating: Barley, Spring: 10
[6]; [13]
  Plant response rating: Barley, Spring: 15
[6]; [14]
  Plant response rating: Barley, Spring: 20
[6]; [17]
  Plant response rating, Barley, Spring: 5
[6]; [16]
  Plant response rating, Barley, Spring: 10
[7]; [12]
  Plant response rating: Wheat, Spring: 10
[7]; [13]
  Plant response rating: Wheat, Spring: 20
[7]; [14]
  Plant response rating: Wheat, Spring: 25
[7]; [17]
  Plant response rating, Wheat, Spring: 5
[7]; [16]
  Plant response rating, Wheat, Spring: 5

## CCOc1nn(-c2ccc(F)cc2)nc1Cc1ccnc(C(F)F)c1 [Compound 195]
[1]
  Plant response rating, Ducksalad (0 to 100 scale, 0 is no effect, 100 is complete control): 100
[2]; [8]
  Plant response rating, Windgrass: 55
[2]; [9]
  Plant response rating, Windgrass: 80
[2]; [10]
  Plant response rating, Windgrass: 95
[2]; [11]
  Plant response rating, Windgrass: 100
[3]; [8]
  Plant response rating: Field Violet: 70
[3]; [9]
  Plant response rating: Field Violet: 75
[3]; [10]
  Plant response rating: Field Violet: 85
[3]; [11]
  Plant response rating: Field Violet: 95
[3]; 16 g ai/ha
  Plant response rating, Field Violet: 70
Kochia (Kochia scoparia); [12]
  Plant response rating: Kochia: 85
Kochia (Kochia scoparia); [13]
  Plant response rating: Kochia: 95
Kochia (Kochia scoparia); [14]
  Plant response rating: Kochia: 100
Kochia (Kochia scoparia); [15]
  Plant response rating: Kochia: 100
Kochia (Kochia scoparia); [16]
  Plant response rating, Kochia: 70
Kochia (Kochia scoparia); [18]
  Plant response rating, Kochia: 40
Kochia (Kochia scoparia); [19]
  Plant response rating, Kochia: 50
Kochia (Kochia scoparia); [20]
  Plant response rating, Kochia: 60
Kochia (Kochia scoparia); [21]
  Plant response rating, Kochia: 80
Kochia (Kochia scoparia); [22]
  Plant response rating, Kochia: 85
[4]; [12]
  Plant response rating: Pigweed: 65
[4]; [13]
  Plant response rating: Pigweed: 75
[4]; [14]
  Plant response rating: Pigweed: 80
[4]; [15]
  Plant response rating: Pigweed: 95
[4]; [16]
  Plant response rating, Pigweed: 60
[4]; [18]
  Plant response rating, Pigweed: 60
[4]; [19]
  Plant response rating, Pigweed: 60
[4]; [20]
  Plant response rating, Pigweed: 60
[4]; [21]
  Plant response rating, Pigweed: 100
[4]; [22]
  Plant response rating, Pigweed: 95
[5]; [12]
  Plant response rating: Speedwell: 100
[5]; [13]
  Plant response rating: Speedwell: 100
[5]; [14]
  Plant response rating: Speedwell: 100
[5]; [15]
  Plant response rating: Speedwell: 100
[5]; [16]
  Plant response rating, Speedwell: 100
[5]; [18]
  Plant response rating, Speedwell: 30
[5]; [19]
  Plant response rating, Speedwell: 100
[5]; [20]
  Plant response rating, Speedwell: 100
[5]; [21]
  Plant response rating, Speedwell: 100
[5]; [22]
  Plant response rating, Speedwell: 100
[6]; [12]
  Plant response rating: Barley, Spring: 15
[6]; [13]
  Plant response rating: Barley, Spring: 20
[6]; [14]
  Plant response rating: Barley, Spring: 30
[6]; [15]
  Plant response rating: Barley, Spring: 40
[6]; [16]
  Plant response rating, Barley, Spring: 10
[6]; [18]
  Plant response rating, Barley, Spring: 0
[6]; [19]
  Plant response rating, Barley, Spring: 0
[6]; [20]
  Plant response rating, Barley, Spring: 0
[6]; [21]
  Plant response rating, Barley, Spring: 0
[6]; [22]
  Plant response rating, Barley, Spring: 30
[7]; [12]
  Plant response rating: Wheat, Spring: 10
[7]; [13]
  Plant response rating: Wheat, Spring: 20
[7]; [14]
  Plant response rating: Wheat, Spring: 25
[7]; [15]
  Plant response rating: Wheat, Spring: 35
[7]; [16]
  Plant response rating, Wheat, Spring: 5
[7]; [18]
  Plant response rating, Wheat, Spring: 0
[7]; [19]
  Plant response rating, Wheat, Spring: 0
[7]; [20]
  Plant response rating, Wheat, Spring: 0
[7]; [21]
  Plant response rating, Wheat, Spring: 0
[7]; [22]
  Plant response rating, Wheat, Spring: 0

From US9302999B2, “Substituted triazoles as herbicides” (E. I. DU PONT DE NEMOURS AND COMPANY, priority 2012, dated 2016)
